Assay results as given in patent US4734399A, “Growth hormone releasing factor analogs” (Hoffmann-La Roche Inc., priority 1986, dated 1988).

Assays:
[1] = test system: rat pituitary cells; test: Stimulation of growth hormone production in rat pituitary cells in tissue culture (RIA for rat growth hormone); format: cell-based; settings: for Potency Relative to GRF(1-44)-NH2: Exp. #GB 83, rat anterior pituitary cells, 4 hours of incubation, 0.8 to 200 fmol per ml, GH by RIA
Protocol: The assay for biological activity, which is based on the ability to stimulate production of growth hormone in rat pituitary cells in tissue culture, was performed as discribed in Example 2.
Pituitaries from 30-40 male Sprague-Dawley rats (175 g) were removed aseptically after decapitation. The anterior lobes were collected, washed 3 times in sterile Hepes buffer (0.025M) (pH 7.35) and dispersed at 37° C. in 20-30 ml Hepes buffer (pH 7.35) containing collagenase (4 mg per ml) and Dispase (Protease grade II, 2 mg per ml). After gentle 100-110 min vortexing and trituration by Pasteur pipette, the dispersed cells were separated by centrifugation (150×g, 4 min) and re-suspended in Hepes buffer containing neuraminidase ([…]), and 200 µg/ml ethylenediaminetetraacetic acid (EDTA) disodium salt, pH 7.35, for 10 min.
The cells were washed twice with plating medium and plated on multiwell-plates (1.5×10^5 cells per ml) using the following defined medium: F-12/DMEM/BGJ (6:3:1) (Gibco: 430-1700/430-1600/320-2591) with 2 g BSA/l., 2.38 g Hepes/1.50 mg PSN antibiotic mixture (Gibco Laboratories), 10 mg/l transferrin (Sigma T2252) with 1.83 g NaHCO3 /l (Baker 3506). The medium in each well was supplemented either with a sample of the novel GRF peptide or natural GRF(1-44)-NH2 at concentrations ranging from 0.8 to 200 fmol per ml of medium. Control wells contained no supplement. Plating was done with this medium added with 2% fetal calf serum to ensure rapid fixation of the cells.
On the fourth day, the cells were washed twice with the defined medium without fetal calf serum. Finally 900 μl of defined medium was added to each well plus 100 μl of the same medium containing each individual treatment, in triplicate. After 4 hours of incubation the medium was collected and diluted as required to conduct radioimmunoassay (RIAs) for rat growth hormone.
RIAs for rat growth hormone were conducted using Sinha's anti-murine GH immune serum and procedures according to the National Pituitary Agency using protein A to precipitate antibody antigen complex.

[2] = test system: release of growth hormone; settings: in vitro; Rivier et al., Nature 300: 276 (1982); cited from earlier work

GRF(1-29)-NH2 [GRF(1-29)NH2]
Potency Relative to GRF(1-44)-NH2 [1]: 0.5 | Intrinsic activity and potency on a weight for weight basis [2]: full intrinsic activity and potency

GRF(1-44)-NH2 [GRF(1-44)NH2]
Potency Relative to GRF(1-44)-NH2 [1]: 1.0 | Biological activity compared with natural GRF(1-44)-NH2 ([1]; vs natural GRF(1-44)-NH2 isolated from human pancreatic tumor (Salk Institute standard hGRF-NH2 (NL-A-10))): identical to the natural GRF(1-44)-NH2
